Several values for one entry are separate records, joined by “and”; a condition that tells them apart may be missing. Equal values may be shown once. Toxic doses and inconclusive results are not listed. The calls were made as follows: active = survival T/C of 150% or more; inactive = T/C below 125% in these data.
Test system: P388 leukemia ip, CD2F1 mice, survival T/C
Assay: NCI In Vivo Anticancer Drug Screen. Data for tumor model P388 Leukemia (intraperitoneal) in CD2F1 (CDF1) mice
Details: endpoint: median survival time, higher = longer survival
Outline: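 Mice carrying the transplanted tumor received test compound or vehicle. Survival was recorded in each group, and the value is the treated-group measurement divided by that of the vehicle-treated control group.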

[1] = dose: 50.0 mg/kg/injection, schedule: Q01DX009 (ip), vehicle: saline with Tween-80
[2] = dose: 100.0 mg/kg/injection, schedule: Q01DX009 (ip), vehicle: saline with Tween-80
[3] = dose: 60.0 mg/kg/injection, schedule: Q01DX005 (ip), vehicle: Klucel (hydroxypropylcellulose) (HPC)
[4] = dose: 120.0 mg/kg/injection, schedule: Q01DX005 (ip), vehicle: Klucel (hydroxypropylcellulose) (HPC)
[5] = dose: 240.0 mg/kg/injection, schedule: Q01DX005 (ip), vehicle: Klucel (hydroxypropylcellulose) (HPC)
[6] = dose: 100.0 mg/kg/injection, schedule: Q01DX009 (ip), vehicle: Klucel (hydroxypropylcellulose) (HPC)
[7] = dose: 200.0 mg/kg/injection, schedule: Q01DX009 (ip), vehicle: Klucel (hydroxypropylcellulose) (HPC)

Measured: T/C

CS(=O)(=O)OCCN(CCOS(C)(=O)=O)c1ccc(C(=O)O)cc1
active: dose: 25.0 mg/kg/injection, schedule: Q01DX009 (ip), vehicle: saline with Tween-80 159 % of control | [1] 168 % of control and 190 % of control | [2] 175 % of control | dose: 132.0 mg/kg/injection, schedule: Q04DX003 (ip), vehicle: saline with Tween-80 159 % of control

CCN(CC)CCCN(c1ccccc1)C1Cc2ccccc2C1
inactive: dose: 15.0 mg/kg/injection, schedule: Q01DX009 (ip), vehicle: saline 95 % of control | dose: 30.0 mg/kg/injection, schedule: Q01DX009 (ip), vehicle: saline 87 % of control | dose: 60.0 mg/kg/injection, schedule: Q01DX009 (ip), vehicle: saline 101 % of control

O=C(O)C1Cc2c([nH]c3ccccc23)C(c2cccs2)N1 (stereo unspecified)
inactive: [3] 100 % of control | [4] 96 % of control | [5] 97 % of control

N[C@@H](Cc1c[nH]c2ccccc12)C(=O)Nc1nncs1
active: dose: 600.0 mg/kg/injection, schedule: Q04DX002 (ip), vehicle: saline 171 % of control | dose: 800.0 mg/kg/injection, schedule: Q04DX002 (ip), vehicle: suspension in saline 151 % of control
inactive: dose: 18.75 mg/kg/injection, schedule: Q01DX005 (ip), vehicle: saline 100 % of control and 102 % of control | dose: 37.5 mg/kg/injection, schedule: Q01DX005 (ip), vehicle: saline 98 % of control and 101 % of control | dose: 50.0 mg/kg/injection, schedule: Q04DX002 (ip), vehicle: suspension in saline 100 % of control | dose: 75.0 mg/kg/injection, schedule: Q01DX005 (ip), vehicle: saline 100 % of control and 101 % of control | dose: 100.0 mg/kg/injection, schedule: Q04DX002 (ip), vehicle: suspension in saline 100 % of control | dose: 150.0 mg/kg/injection, schedule: Q01DX005 (ip), vehicle: saline 99 % of control and 100 % of control | dose: 200.0 mg/kg/injection, schedule: Q04DX002 (ip), vehicle: suspension in saline 99 % of control | dose: 300.0 mg/kg/injection, schedule: Q01DX005 (ip), vehicle: saline 106 % of control and 109 % of control

CCN(CC)P(=O)(N1CC1)N1CC1
inactive: dose: 25.0 mg/kg/injection, schedule: Q01DX009 (ip), vehicle: saline 86 % of control
active: dose: 6.25 mg/kg/injection, schedule: Q01DX009 (ip), vehicle: saline 169 % of control | dose: 12.5 mg/kg/injection, schedule: Q01DX009 (ip), vehicle: saline 243 % of control | dose: 12.5 mg/kg/injection, schedule: Q04DX003 (ip), vehicle: saline 175 % of control | dose: 25.0 mg/kg/injection, schedule: Q04DX003 (ip), vehicle: saline 245 % of control

CNC(=S)SCc1ccccc1
inactive: [1] 99 % of control | [2] 110 % of control

CC1=CC(C)(C)Nc2ccccc21
inactive: [6] 108 % of control | [7] 114 % of control | dose: 400.0 mg/kg/injection, schedule: Q01DX009 (ip), vehicle: Klucel (hydroxypropylcellulose) (HPC) 110 % of control

CC(C)(O)[C@H]1[C@@H]2OC(=O)[C@H]1[C@]1(O)C[C@H]3OC34C(=O)O[C@H]2[C@@]41C (stereo partly specified) (tested in a mixture with another compound)
inactive: dose: 0.25 mg/kg/injection, schedule: Q01DX009 (ip), vehicle: Klucel (hydroxypropylcellulose) (HPC) 99 % of control | dose: 0.5 mg/kg/injection, schedule: Q01DX009 (ip), vehicle: Klucel (hydroxypropylcellulose) (HPC) 113 % of control | dose: 1.0 mg/kg/injection, schedule: Q01DX009 (ip), vehicle: Klucel (hydroxypropylcellulose) (HPC) 100 % of control | dose: 2.0 mg/kg/injection, schedule: Q01DX009 (ip), vehicle: Klucel (hydroxypropylcellulose) (HPC) 96 % of control | dose: 25.0 mg/kg/injection, schedule: Q01DX009 (ip), vehicle: Klucel (hydroxypropylcellulose) (HPC) 99 % of control | dose: 50.0 mg/kg/injection, schedule: Q01DX009 (ip), vehicle: Klucel (hydroxypropylcellulose) (HPC) 105 % of control | [6] 106 % of control | [7] 96 % of control

CCCCN=NN(C)CCCC
inactive: dose: 12.5 mg/kg/injection, schedule: Q01DX005 (ip), vehicle: saline with Tween-80 107 % of control | dose: 25.0 mg/kg/injection, schedule: Q01DX005 (ip), vehicle: saline with Tween-80 117 % of control

CC1=C(C(=O)Nc2ccccc2C)C(c2ccco2)C(C(=O)Nc2ccccc2C)=C(C)N1
inactive: dose: 60.0 mg/kg/injection, schedule: Q01DX005 (ip), vehicle: saline with Tween-80 96 % of control | dose: 120.0 mg/kg/injection, schedule: Q01DX005 (ip), vehicle: saline with Tween-80 94 % of control | dose: 240.0 mg/kg/injection, schedule: Q01DX005 (ip), vehicle: saline with Tween-80 97 % of control

COc1cc(C2c3cc4c(cc3CC3COC(=O)C32)OCO4)cc(OC)c1O (stereo unspecified)
inactive: dose: 0.5 mg/kg/injection, schedule: Q01DX009 (ip), vehicle: saline with Tween-80 105 % of control | dose: 1.0 mg/kg/injection, schedule: Q01DX009 (ip), vehicle: saline with Tween-80 103 % of control | dose: 2.0 mg/kg/injection, schedule: Q01DX009 (ip), vehicle: saline with Tween-80 114 % of control | dose: 3.1 mg/kg/injection, schedule: Q01DX009 (ip), vehicle: saline with Tween-80 123 % of control | dose: 4.0 mg/kg/injection, schedule: Q01DX009 (ip), vehicle: saline with Tween-80 107 % of control

COC1=CC(=O)c2c(O)cc(OC)cc2C1=O
inactive: dose: 1.25 mg/kg/injection, schedule: Q01DX009 (ip), vehicle: saline with Tween-80 106 % of control and 116 % of control | dose: 2.5 mg/kg/injection, schedule: Q01DX009 (ip), vehicle: saline with Tween-80 101 % of control and 108 % of control | dose: 5.0 mg/kg/injection, schedule: Q01DX009 (ip), vehicle: saline with Tween-80 100 % of control and 114 % of control | dose: 10.0 mg/kg/injection, schedule: Q01DX009 (ip), vehicle: saline with Tween-80 100 % of control and 92 % of control | dose: 20.0 mg/kg/injection, schedule: Q01DX009 (ip), vehicle: saline with Tween-80 107 % of control and 92 % of control

C=CCOC(=O)CCCC1=NC2=CC=CC3=NC(C)=NC(=N1)N23
inactive: dose: 50.0 mg/kg/injection, schedule: Q04DX003 (ip), vehicle: saline with Tween-80 105 % of control | dose: 100.0 mg/kg/injection, schedule: Q04DX003 (ip), vehicle: saline with Tween-80 99 % of control | dose: 200.0 mg/kg/injection, schedule: Q04DX003 (ip), vehicle: saline with Tween-80 91 % of control

CN(C)c1ccc(P(=O)(O)O)c(Cl)c1
inactive: dose: 100.0 mg/kg/injection, schedule: Q01DX001 (ip), vehicle: Klucel (hydroxypropylcellulose) (HPC) 99 % of control | dose: 200.0 mg/kg/injection, schedule: Q01DX001 (ip), vehicle: Klucel (hydroxypropylcellulose) (HPC) 96 % of control | dose: 400.0 mg/kg/injection, schedule: Q01DX001 (ip), vehicle: Klucel (hydroxypropylcellulose) (HPC) 96 % of control

CCC(=O)NN(Cn1c(=S)sc2ccccc21)Cn1c(=S)sc2ccccc21
inactive: dose: 50.0 mg/kg/injection, schedule: Q01DX005 (ip), vehicle: Klucel (hydroxypropylcellulose) (HPC) 99 % of control | dose: 100.0 mg/kg/injection, schedule: Q01DX005 (ip), vehicle: Klucel (hydroxypropylcellulose) (HPC) 89 % of control | dose: 200.0 mg/kg/injection, schedule: Q01DX005 (ip), vehicle: Klucel (hydroxypropylcellulose) (HPC) 93 % of control

CCCCCCCCCCNC1CC(OC2CC(O)(C(C)=O)Cc3c(O)c4c(c(O)c32)C(=O)c2c(OC)cccc2C4=O)OC(C)C1O (stereo unspecified)
inactive: dose: 4.7 mg/kg/injection, schedule: Q04DX003 (ip), vehicle: water 101 % of control | dose: 9.4 mg/kg/injection, schedule: Q04DX003 (ip), vehicle: water 97 % of control | dose: 18.8 mg/kg/injection, schedule: Q04DX003 (ip), vehicle: water 106 % of control | dose: 37.5 mg/kg/injection, schedule: Q04DX003 (ip), vehicle: water 92 % of control

Cc1ccc(S(=O)(=O)C23N=NC(C)(C)C2N=NC3(C)C)cc1 (stereo unspecified)
inactive: [3] 101 % of control | [4] 100 % of control | [5] 98 % of control

O=C(O)/C(=C/c1ccc(/C=C(/C(=O)O)c2ccccc2)o1)c1ccccc1
inactive: dose: 100.0 mg/kg/injection, schedule: Q01DX001 (ip), vehicle: saline with Tween-80 101 % of control | dose: 200.0 mg/kg/injection, schedule: Q01DX001 (ip), vehicle: saline with Tween-80 97 % of control | dose: 400.0 mg/kg/injection, schedule: Q01DX001 (ip), vehicle: saline with Tween-80 101 % of control

CC1=C2C=CCC[C@H](C)[C@H]2CC1
inactive: dose: 3.5 mg/kg/injection, schedule: Q01DX005 (ip), vehicle: water 95 % of control | dose: 7.0 mg/kg/injection, schedule: Q01DX005 (ip), vehicle: water 95 % of control | dose: 14.0 mg/kg/injection, schedule: Q01DX005 (ip), vehicle: water 92 % of control | dose: 28.0 mg/kg/injection, schedule: Q01DX005 (ip), vehicle: water 94 % of control

— PubChem BioAssay AID330 (DTP/NCI, 2004)
